Assay results taken from patent US4698350A, “1-ethyl-6-fluoro-1,4-dihydro- 7-(2,6-dimethyl-4-pyridinyl)-4-oxo-3-quinolinecarboxylic acid and antibacterial use thereof” (Sterling Drug Inc., priority 1984, dated 1987).
≈ marks a conversion by molar mass, not a printed value. Structures can show the parent of a compound that is named as a salt. Where two headings read alike, the source gives them in different places.

Experiments:
[1] = tested on: Staphylococcus aureus Smith; experiment: Mouse protection test, S. aureus Smith infection, single dose; format: in vivo, ICR mice; Staphylococcus aureus; settings: single dose; for ED50: Staphylococcus aureus, 168 h, read-out: Protective Dose 50% (95% Confidence Limits)
Description: (§1) ICR mice, female, 18-20 grams each.
(§2) Solutions of Win 52,522 and Win 35,439 were prepared by dissolving the appropriate weight of drug in 0.3 to 0.4 ml of 1 N NaOH and then bringing the solutions to the desired volume with distilled water. Methicillin and vancomycin were dissolved directly in distilled water.
Two and one-half ml of pool were added to 247.5 ml of 5% gastric mucin to provide the test inoculum containing 2.1×10^4 cells/ml.
(§3) Mice were inoculated intraperitoneally with 0.5 ml of the bacterial test inoculum.
1. Single dose test--Mice were medicated subcutaneously or orally once (0.5 ml) one-half hour postinfection.
(§4) Deaths were recorded daily for seven days for all tests. Fifty percent protective dose values (PD50's) were calculated using probit analysis [SAS Users Guide: Statistics, 1982 Edition, SAS Institute, Inc., Cary, N.C.].

[2] = tested on: S. aureus; experiment: In vitro MIC/MBC summary (Table II); format: cell-based; settings: Staphylococcus aureus; for MIC: read-out: MIC Range
Description: (§5) Win 52,522 and Win 35,439 were solubilized in 0.1 ml of 0.5 N NaOH/mg of compound and diluted in sterile distilled water to 160 mcg/ml. Vancomycin and methicillin were solubilized in sterile distilled water to 1250 mcg/ml of base compound. The stock solutions were sterilized by filtration through membrane filters with a 0.45 μm pore size.
(§6) The bacterial cultures listed in Table I (hereinbelow) were grown overnight at 37° C. in MHB for all cultures except the Streptococcus strains. These were grown in BHI+10% NHS. The overnight broth cultures were adjusted to an optical density of 0.10 (650 nm, B L Spectronic 20) in sterile distilled water and subsequently diluted to 6.7×10^6 cells/ml in MHB or BHI+1% NHS.
(§7) Serial two-fold dilutions of the compound solutions were prepared in MHB (or in BHI+1% NHS for tests with Streptococci) and dispensed into 96-well microtiter trays in a volume of 0.1 ml/well using a Sandy Springs (Bellco Glass Co.) dispenser. The trays were then inoculated with 0.0015 ml of a suspension containing 6.7×10^6 cells/ml of the appropriate inoculum using a MIC-2000 inoculator (Dynatech Corp.) resulting in a final inoculum of approximately 1×10^4 cells/well or 1×10^5 cells/ml. The trays were incubated at 37° C. for 18-20 hours and the minimal inhibitory concentration (MIC), defined as the lowest concentration of compound to inhibit visible bacterial growth, was recorded.
(§8) After the MIC values were recorded, the contents in the microtiter trays were thoroughly mixed on a Bellco Mini-orbital Shaker (Bellco Glass Co.) for 3 min. at a setting of 8. A portion (0.0015 ml) from each well was then transferred via an MIC-2000 inoculator to plates containing MHA or BHI agar+10% NHS. The plates were incubated at 37° C. for 18-20 hrs. The minimal bactericidal concentration (MBC), defined as the lowest concentration of compound that prevented the formation of a recognizable colony on the agar surface, was recorded.

[3] = tested on: Streptococcus sp.; experiment: In vitro MIC/MBC summary (Table II); format: cell-based; settings: 9 Streptococcus sp. strains; for MIC50: read-out: MIC 50%; for MIC90: read-out: MIC 90%
Description: as §5, §6, §7, §8

[4] = tested on: S. edidermidis; experiment: In vitro MIC/MBC summary (Table II); format: cell-based, S. epidermidis; settings: Staphylococcus epidermidis, 5 S. edidermidis strains; for MIC50: read-out: MIC 50%; for MIC90: read-out: MIC 90%; for MIC: read-out: MIC Range
Description: as §5, §6, §7, §8

[5] = tested on: S. pyogenes C203; experiment: In vitro antibacterial MIC/MBC test; format: cell-based; settings: Streptococcus pyogenes, S. pyogenes C203; for MBC: read-out: MBC; for MIC: read-out: MIC
Description: as §5, §6, §7, §8

[6] = tested on: S. aureus 21-81A; experiment: In vitro antibacterial MIC/MBC test; format: cell-based; settings: Staphylococcus aureus, 2181A, S. aureus 21-81A; for MBC: read-out: MBC; for MIC: read-out: MIC
Description: as §5, §6, §7, §8

[7] = tested on: S. epidermidis 1-5-H; experiment: In vitro antibacterial MIC/MBC test; format: cell-based; settings: Staphylococcus epidermidis, 15H, S. epidermidis 1-5-H; for MBC: read-out: MBC; for MIC: read-out: MIC
Description: as §5, §6, §7, §8

[8] = tested on: S. pneumoniae Type III; experiment: In vitro antibacterial MIC/MBC test; format: cell-based; settings: Streptococcus pneumoniae, S. pneumoniae Type III; for MBC: read-out: MBC; for MIC: read-out: MIC
Description: as §5, §6, §7, §8

[9] = tested on: S. enterococcus 0-2-13; experiment: In vitro antibacterial MIC/MBC test; format: cell-based; settings: 0213, S. enterococcus 0-2-13; for MBC: read-out: MBC; for MIC: read-out: MIC
Description: as §5, §6, §7, §8

[10] = tested on: S. pyogenes 7948-15; experiment: In vitro antibacterial MIC/MBC test; format: cell-based; settings: Streptococcus pyogenes, 794815, S. pyogenes 7948-15; for MBC: read-out: MBC; for MIC: read-out: MIC
Description: as §5, §6, §7, §8

[11] = tested on: S. epidermidis 2-1-B; experiment: In vitro antibacterial MIC/MBC test; format: cell-based; settings: Staphylococcus epidermidis, 21B, S. epidermidis 2-1-B; for MBC: read-out: MBC; for MIC: read-out: MIC
Description: as §5, §6, §7, §8

[12] = tested on: Staphylococcus aureus 39881 (Methicillin-resistant); experiment: Mouse protection test, S. aureus 39881 (methicillin-resistant) infection; format: in vivo, ICR mice; Staphylococcus aureus; settings: for Survivors/Total: two doses; for ED50: Staphylococcus aureus, 168 h, two doses one-half and four hours postinfection, read-out: Protective Dose 50% (95% Confidence Limits)
Description: as §1, §2
The culture was streaked onto three Brain Heart Infusion Agar plates and incubated 16 hours at 37° C. The cells were washed off each plate with five ml of saline and the cell suspension was shaken with glass beads for two minutes on a paint shaker. The suspension was diluted with saline so that a […] gave a 44% T reading on a B+L Spectronic 20 (650 nm) calibrated with saline. The stock suspension was diluted 1:24 (10 ml stock suspension+230 ml 5% mucin) to obtain the test inoculum containing 1.55×10^9 cells/ml.
as §3
Mice were medicated twice: at one-half and four hours postinfection. The drugs were administered by both subcutaneous (0.2 ml) and oral (0.5 ml) routes.
as §4

CCn1cc(C(=O)O)c(=O)c2ccc(-c3cc(C)nc(C)c3)cc21 [Win 35,439, 1-ethyl-1,4-dihydro-7-(2,6-dimethyl-4-pyridinyl)-4-oxo-3-quinolinecarboxylic acid]
Survivors/Total ([1]; 0.39 mg/kg po): 0/10 | Survivors/Total ([1]; 0.78 mg/kg po): 1/10 | Survivors/Total ([1]; 0.78 mg/kg sc): 1/10 | Survivors/Total ([1]; 1.56 mg/kg po): 0/10 | Survivors/Total ([1]; 1.56 mg/kg sc): 0/10 | Survivors/Total ([1]; 3.13 mg/kg po): 0/10 | Survivors/Total ([1]; 3.13 mg/kg sc): 6/10 | Survivors/Total ([1]; 6.25 mg/kg po): 7/10 | Survivors/Total ([1]; 6.25 mg/kg sc): 10/10 | ED50 ([1]; po): ~5.5 mg/kg | ED50 ([1]; sc): 2.9 mg/kg | MBC ([2]; read-out: MBC 50%): 0.25 µg/mL (≈ 0.776 µM) | MBC ([2]; read-out: MBC 90%): 0.5 µg/mL (≈ 1.55 µM) | MBC ([2]; read-out: MBC Range): 0.125 to 0.5 µg/mL (≈ 0.388 to 1.55 µM) | MIC50 ([2]; 15 S. aureus strains, read-out: MIC 50%): 0.06 µg/mL (≈ 0.186 µM) | MIC90 ([2]; 15 S. aureus strains, read-out: MIC 90%): 0.125 µg/mL (≈ 0.388 µM) | MIC ([2]; 15 S. aureus strains): 0.03 to 0.125 µg/mL (≈ 0.0931 to 0.388 µM) | MBC ([3]; read-out: MBC 50%): 2 µg/mL (≈ 6.2 µM) | MBC ([3]; read-out: MBC 90%): > 16 µg/mL | MIC50 [3]: 2 µg/mL (≈ 6.2 µM) | MIC90 [3]: 4 µg/mL (≈ 12.4 µM) | MIC ([3]; read-out: MIC Range): 0.5 to 4 µg/mL (≈ 1.55 to 12.4 µM) | MBC ([4]; read-out: MBC 50%): 0.25 µg/mL (≈ 0.776 µM) | MBC ([4]; read-out: MBC 90%): 0.25 µg/mL (≈ 0.776 µM) | MBC ([4]; read-out: MBC Range): 0.25 to 0.5 µg/mL (≈ 0.776 to 1.55 µM) | MIC50 [4]: 0.25 µg/mL (≈ 0.776 µM) | MIC90 [4]: 0.25 µg/mL (≈ 0.776 µM) | MIC [4]: 0.25 to 0.5 µg/mL (≈ 0.776 to 1.55 µM) | MBC [5]: > 16 µg/mL | MIC [5]: 4 µg/mL (≈ 12.4 µM) | MBC [6]: 0.125 µg/mL (≈ 0.388 µM) | MIC [6]: 0.06 µg/mL (≈ 0.186 µM) | MBC [7]: 0.25 µg/mL (≈ 0.776 µM) | MIC [7]: 0.25 µg/mL (≈ 0.776 µM) | MBC [8]: 4 µg/mL (≈ 12.4 µM) | MIC [8]: 4 µg/mL (≈ 12.4 µM) | MBC [9]: 2 µg/mL (≈ 6.2 µM) | MIC [9]: 2 µg/mL (≈ 6.2 µM) | MBC [10]: > 16 µg/mL | MIC [10]: 4 µg/mL (≈ 12.4 µM) | MBC [11]: 0.25 µg/mL (≈ 0.776 µM) | MIC [11]: 0.25 µg/mL (≈ 0.776 µM) | Survivors/Total ([12]; 1.56 mg/kg po): 1/10 | Survivors/Total ([12]; 1.56 mg/kg sc): 0/10 | Survivors/Total ([12]; 3.13 mg/kg po): 0/10 | Survivors/Total ([12]; 3.13 mg/kg sc): 0/10 | Survivors/Total ([12]; 6.25 mg/kg po): 3/10 | Survivors/Total ([12]; 6.25 mg/kg sc): 9/10 | Survivors/Total ([12]; 12.5 mg/kg po): 10/10 | Survivors/Total ([12]; 12.5 mg/kg sc): 7/10 | ED50 ([12]; po): 7.2 mg/kg | ED50 ([12]; sc): ~4.9 mg/kg

COc1cccc(OC)c1C(=O)N[C@@H]1C(=O)N2[C@@H]1SC(C)(C)[C@@H]2C(=O)O [Methicillin, 6-(2,6-dimethoxybenzamido)penicillanic acid sodium salt]
MIC50 [2]: 2 µg/mL | MIC90 [2]: 8 µg/mL | MBC ([2]; read-out: MBC 90%): > 64 µg/mL | MIC [2]: 1 to 125 µg/mL | MBC ([3]; read-out: MBC 50%): 0.125 µg/mL | MBC ([3]; read-out: MBC 90%): 64 µg/mL | MIC50 [3]: 0.25 µg/mL | MIC90 [3]: 64 µg/mL | MBC ([4]; read-out: MBC 50%): 4 µg/mL | MBC ([4]; read-out: MBC 90%): 4 µg/mL | MBC ([4]; read-out: MBC Range): 2 to 4 µg/mL | MIC50 [4]: 2 µg/mL | MIC90 [4]: 4 µg/mL | MIC [4]: 1 to 4 µg/mL | MBC [5]: 0.125 µg/mL | MIC [5]: 0.125 µg/mL | MBC [6]: 1 µg/mL | MIC [6]: 1 µg/mL | MBC [7]: 2 µg/mL | MIC [7]: 1 µg/mL | MBC [8]: 0.125 µg/mL | MIC [8]: 0.125 µg/mL | MBC [9]: 8 µg/mL | MIC [9]: 8 µg/mL | MBC [10]: 0.125 µg/mL | MIC [10]: 0.25 µg/mL | MBC [11]: 2 µg/mL | MIC [11]: 1 µg/mL | Survivors/Total ([12]; 25 mg/kg sc): 0/10 | Survivors/Total ([12]; 50 mg/kg sc): 0/10 | Survivors/Total ([12]; 100 mg/kg sc): 0/10 | ED50 ([12]; sc): > 100 mg/kg
